Earlier results in US20110274751A1 (Sanovel Ilac Sanayi Ve Ticaret Anonim Sirketi, priority 2010, published 2011).
Counter-ions that a name gives are not always drawn.

Assays:
[1] = in vivo

| half-life [1] [h] | solubility | solubility in water (water) | Structure (SMILES) |
| --- | --- | --- | --- |
| 6 | considerably high solubility |  | COc1ccc(CN2CCNCC2)c(OC)c1OC [Trimetazidine, 1-(2,3,4-trimethoxybenzyl)piperazine] |
|  |  | highly-soluble | COc1ccc(CN2CCNCC2)c(OC)c1OC [Trimetazidine dihydrochloride] |
